55 molecules from patent publication US20100298285A1, “Biclycloheteroaryl Compounds as P2x7 Modulators and Uses Thereof” (priority 2006, published 2010) can be followed below.

The term IC50 denotes the midpoint of a concentration-inhibition curve. A higher IC50 goes with weaker potency.

One assay has as its system IL-1β release, THP-1 cells. Briefly: IL-1β release assay in differentiated THP-1 cells stimulated with BzATP (Example 9). The assay is classed as cell-based. The conditions noted are these: Homo sapiens; 0.1 μM compound ("*" symbols); differentiated THP-1 cells, 250 uM BzATP; read-out: IL-1β% Inhib. @ 0.3 or 0.1 μM. Put shortly: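 THP-1 cells differentiated 16 h with 100 ng/mL LPS + 100 ng/mL IFN-γ, re-primed 2 h with fresh LPS 100 ng/mL, pretreated 30 min with compound, then stimulated with BzATP 250 uM final for 45 min. Supernatant IL-1β by ELISA; background-adjusted % inhibition, IC50 from four-parameter logistic fit.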
Regarding `O=C(Cc1ccc(C(F)(F)F)cc1)Nc1c(Cl)ccc2c1CCN(S(=O)(=O)c1ccccc1OC(F)(F)F)C2` [Compound 3034], the inhibition at 0.1 µM was in the range of 0 to 25%.

`Cc1ccc(S(=O)(=O)N2CCc3c(ccc(Cl)c3NC(=O)Cc3ccc(C(F)(F)F)cc3)C2)c(C)c1` [Compound 3026]: the inhibition at 0.1 µM is 0 to 25%. On the same count and under the same terms, with `O=C(Cc1ccc(C(F)(F)F)cc1)Nc1c(Cl)ccc2c1CCN(S(=O)(=O)c1ccc(F)cc1Cl)C2` [Compound 3017] the figure was 0 to 25%; with `O=C(Cc1ccc(C(F)(F)F)cc1)Nc1c(Cl)ccc2c1CCN(S(=O)(=O)c1cccc(Cl)c1F)C2` [Compound 3019], 0 to 25%; with `COc1cccc(S(=O)(=O)N2CCc3c(ccc(Cl)c3NC(=O)Cc3ccc(C(F)(F)F)cc3)C2)c1` [Compound 3030], 0 to 25%. As to `O=C(Cc1ccc(C(F)(F)F)cc1)Nc1c(Cl)ccc2c1CCN(S(=O)(=O)c1ccccc1C(F)(F)F)C2` [Compound 3031], the inhibition at 0.1 µM was 0 to 25%. For `O=C(Cc1ccc(C(F)(F)F)cc1)Nc1c(Cl)ccc2c1CCN(S(=O)(=O)c1ccc(C(F)(F)F)cc1)C2` [Compound 3033], the inhibition at 0.1 µM was in the range of 0 to 25%. As for `N#Cc1ccc(S(=O)(=O)N2CCc3c(ccc(Cl)c3NC(=O)Cc3ccc(C(F)(F)F)cc3)C2)cc1` [Compound 3029], the inhibition at 0.1 µM fell in the range of 0 to 25%.

For `Cc1ccccc1S(=O)(=O)N1CCc2c(ccc(Cl)c2NC(=O)Cc2ccc(C(F)(F)F)cc2)C1` [Compound 3023], the inhibition at 0.1 µM is 0 to 25%. Turning to `O=C(Cc1ccc(C(F)(F)F)cc1)Nc1c(Cl)ccc2c1CCN(S(=O)(=O)c1cccc(Cl)c1)C2` [Compound 3012], the inhibition at 0.1 µM was in the range of 0 to 25%.

Staying with this assay, now noted: Homo sapiens; 0.3 μM compound ("+" symbols); differentiated THP-1 cells, 250 uM BzATP; read-out: IL-1β% Inhib. @ 0.3 or 0.1 μM.
Turning to `CC(C)(C)OC(=O)N1CCC(OCC(=O)N2CCc3c(cccc3NC(=O)Cc3ccc(C(F)(F)F)c(F)c3)C2)CC1` [Compound 3047], the inhibition at 0.3 µM fell in the range of 51 to 75%.

For the molecule `CCC(=O)N1CCc2c(ccc(Cl)c2NC(=O)Cc2cccc(C(F)(F)F)c2F)C1` [Compound 3138], the inhibition at 0.3 µM was in the range of 0 to 25%. As for `COc1ccc(C(=O)N2CCc3c(ccc(Cl)c3NC(=O)Cc3cccc(C(F)(F)F)c3F)C2)cc1OC` [Compound 3193], the inhibition at 0.3 µM was 0 to 25%. In the case of `Cc1ccc2c(c1NC(=O)Cc1ccc(C(F)(F)F)cc1)CCN(C(=O)[C@H]1CCCN1)C2` [Compound 3060, N-[6-Methyl-2-((R)-pyrrolidine-2-carbonyl)-1,2,3,4-tetrahydro-isoquinolin-5-yl]-2-(4-trifluoromethyl-phenyl)-acetamide], the inhibition at 0.3 µM was not below 76%.

With `O=C(Cc1ccc(C(F)(F)F)c(F)c1)Nc1c(Cl)ccc2c1CCN(C(=O)c1ccc(-c3ccccc3)cc1)C2` [Compound 3077], the inhibition at 0.3 µM was 0 to 25%. In the case of `COc1cccc(C(=O)N2CCc3c(ccc(Cl)c3NC(=O)Cc3cccc(C(F)(F)F)c3F)C2)c1` [Compound 3153], the inhibition at 0.3 µM was 0 to 25%. Consider `N#Cc1ccc(C(=O)N2CCc3c(ccc(Cl)c3NC(=O)Cc3cccc(C(F)(F)F)c3F)C2)cc1` [Compound 3161], for which the inhibition at 0.3 µM lay within 0 to 25%.

Take `CC(C)C(=O)N1CCc2c(ccc(Cl)c2NC(=O)Cc2ccc(C(F)(F)F)c(F)c2)C1` [Compound 3088]: the inhibition at 0.3 µM lay within 0 to 25%. Regarding `O=C(Cc1ccc(C(F)(F)F)c(F)c1)Nc1c(Cl)ccc2c1CCN(C(=O)c1ccc(F)cc1)C2` [Compound 3091], the inhibition at 0.3 µM is 0 to 25%. Take `CN(C)c1ccc(C(=O)N2CCc3c(ccc(Cl)c3NC(=O)Cc3cccc(C(F)(F)F)c3F)C2)cc1` [Compound 3159]: the inhibition at 0.3 µM fell in the range of 0 to 25%. As for `O=C(Cc1cccc(C(F)(F)F)c1F)Nc1c(Cl)ccc2c1CCN(C(=O)C1COc3ccccc3O1)C2` (stereo not shown) [Compound 3174], the inhibition at 0.3 µM fell in the range of 0 to 25%. As to `COc1ccc(C(=O)N2CCc3c(ccc(Cl)c3NC(=O)Cc3cccc(C(F)(F)F)c3F)C2)cc1` [Compound 3141], the inhibition at 0.3 µM was 0 to 25%. With `COc1ccc(C(=O)N2CCc3c(ccc(Cl)c3NC(=O)Cc3ccc(C(F)(F)F)c(F)c3)C2)cc1` [Compound 3076], the inhibition at 0.3 µM was in the range of 0 to 25%.

For the molecule `O=C(Cc1cccc(C(F)(F)F)c1F)Nc1c(Cl)ccc2c1CCN(C(=O)c1ccncc1)C2` [Compound 3190], the inhibition at 0.3 µM is 0 to 25%. `O=C(Cc1ccc(C(F)(F)F)c(F)c1)Nc1cccc2c1CCN(C(=O)[C@H]1CCCN1)C2` [Compound 3051]: the inhibition at 0.3 µM was not below 76%. `O=C(Cc1cccc(C(F)(F)F)c1F)Nc1c(Cl)ccc2c1CCN(C(=O)c1ccc3ccccc3n1)C2` [Compound 3189]: the inhibition at 0.3 µM lay in the range of 0 to 25%.

In the case of `CC(c1ccc(F)cc1)N1CCc2c(cccc2NC(=O)Cc2ccc(C(F)(F)F)c(F)c2)C1` (stereo not shown) [Compound 3059, N-{2-[1-(4-Fluoro-phenyl)-ethyl]-1,2,3,4-tetrahydro-isoquinolin-5-yl}-2-(3-fluoro-4-trifluoromethyl-phenyl)-acetamide], the inhibition at 0.3 µM is 51 to 75%. As for `CC(C)(C)OC(=O)NC(Cc1ccccc1)C(=O)N1CCc2c(cccc2NC(=O)Cc2ccc(C(F)(F)F)c(F)c2)C1` (stereo not shown) [Compound 3045], the inhibition at 0.3 µM was 26 to 50%. For the molecule `CCCc1ccc(C(=O)N2CCc3c(ccc(Cl)c3NC(=O)Cc3ccc(C(F)(F)F)c(F)c3)C2)cc1` [Compound 3084], the inhibition at 0.3 µM was in the range of 0 to 25%. For `O=C(Cc1ccc(C(F)(F)F)c(F)c1)Nc1c(Cl)ccc2c1CCN(C(=O)c1ccc(Cl)cc1)C2` [Compound 3073], the inhibition at 0.3 µM fell in the range of 0 to 25%.

As to `O=C(Cc1cccc(C(F)(F)F)c1F)Nc1c(Cl)ccc2c1CCN(C(=O)c1cc(F)c(F)cc1F)C2` [Compound 3143], the inhibition at 0.3 µM is 0 to 25%. Still for that read-out and setting: with `COc1ccc(OC)c(CC(=O)N2CCc3c(ccc(Cl)c3NC(=O)Cc3ccc(C(F)(F)F)c(F)c3)C2)c1` [Compound 3081] the figure was 0 to 25%; with `O=C(Cc1cccc(C(F)(F)F)c1F)Nc1c(Cl)ccc2c1CCN(C(=O)c1cccc(Cl)c1Cl)C2` [Compound 3179], 26 to 50%.

With `COc1cc(OC)cc(C(=O)N2CCc3c(ccc(Cl)c3NC(=O)Cc3ccc(C(F)(F)F)c(F)c3)C2)c1` [Compound 3087], the inhibition at 0.3 µM is 0 to 25%.

As for `COc1cccc(C(=O)N2CCc3c(ccc(Cl)c3NC(=O)Cc3ccc(C(F)(F)F)c(F)c3)C2)c1` [Compound 3090], the inhibition at 0.3 µM is 0 to 25%.

With `CC(=O)N1CCc2c(ccc(Cl)c2NC(=O)Cc2cccc(C(F)(F)F)c2F)C1` [Compound 3136], the inhibition at 0.3 µM lay within 0 to 25%. For `CC(C)(C)c1ccc(C(=O)N2CCc3c(ccc(Cl)c3NC(=O)Cc3cccc(C(F)(F)F)c3F)C2)cc1` [Compound 3188], the inhibition at 0.3 µM was not below 76%. Consider `O=C(Cc1cccc(C(F)(F)F)c1F)Nc1c(Cl)ccc2c1CCN(C(=O)c1ccc(Oc3ccccc3)nc1)C2` [Compound 3197], for which the inhibition at 0.3 µM was 0 to 25%. For the molecule `O=C(Cc1cccc(C(F)(F)F)c1F)Nc1c(Cl)ccc2c1CCN(C(=O)C1CC1c1ccccc1)C2` (stereo not shown) [Compound 3162], the inhibition at 0.3 µM is 26 to 50%. Regarding `CCCC(O)CN1CCc2c(cccc2NC(=O)Cc2ccc(C(F)(F)F)c(F)c2)C1` (stereo not shown) [Compound 3063], the inhibition at 0.3 µM lay in the range of 26 to 50%. With `O=C(Cc1cccc(C(F)(F)F)c1F)Nc1c(Cl)ccc2c1CCN(C(=O)c1ccc(C(F)(F)F)nc1)C2` [Compound 3196], the inhibition at 0.3 µM is 0 to 25%. As for `Cc1cc(C(=O)N2CCc3c(ccc(Cl)c3NC(=O)Cc3cccc(C(F)(F)F)c3F)C2)no1` [Compound 3180], the inhibition at 0.3 µM was in the range of 0 to 25%.

On to `O=C(Cc1ccc(C(F)(F)F)c(F)c1)Nc1c(Cl)ccc2c1CCN(C(=O)C1CCCC1)C2` [Compound 3080], for which the inhibition at 0.3 µM lay in the range of 51 to 75%. For `O=C(Cc1ccc(C(F)(F)F)c(F)c1)Nc1c(Cl)ccc2c1CCN(C(=O)Cc1ccc(Cl)cc1)C2` [Compound 3105], the inhibition at 0.3 µM lay within 26 to 50%. For `CC(C)CC(=O)N1CCc2c(ccc(Cl)c2NC(=O)Cc2cccc(C(F)(F)F)c2F)C1` [Compound 3158], the inhibition at 0.3 µM fell in the range of 0 to 25%. As for `COCC(=O)N1CCc2c(ccc(Cl)c2NC(=O)Cc2cccc(C(F)(F)F)c2F)C1` [Compound 3145], the inhibition at 0.3 µM fell in the range of 51 to 75%.

Turning to `CCCC(=O)N1CCc2c(ccc(Cl)c2NC(=O)Cc2ccc(C(F)(F)F)c(F)c2)C1` [Compound 3123], the inhibition at 0.3 µM was 0 to 25%. On to `O=C(Cc1ccc(C(F)(F)F)c(F)c1)Nc1c(Cl)ccc2c1CCN(C(=O)c1c(Cl)cccc1Cl)C2` [Compound 3068], for which the inhibition at 0.3 µM fell in the range of 0 to 25%. In the case of `CC(C)(C)C(=O)N1CCc2c(ccc(Cl)c2NC(=O)Cc2cccc(C(F)(F)F)c2F)C1` [Compound 3155], the inhibition at 0.3 µM lay within 0 to 25%.

Still in this assay, the particulars now being: Homo sapiens; THP-1 cells, BzATP 250 uM, four parameter logistic fit.
Molecule `CC(C)(C)OC(=O)N1CCC(OCC(=O)N2CCc3c(cccc3NC(=O)Cc3ccc(C(F)(F)F)c(F)c3)C2)CC1` [Compound 3047] displayed an IC50 of 199 nM. In other words, the sub-micromolar range. As for `O=C(Cc1cccc(C(F)(F)F)c1F)Nc1c(Cl)ccc2c1CCN(S(=O)(=O)C1CC1)C2` [Compound 3313], the IC50 was determined as 34.8 nM. On the same count and under the same terms, with `Cc1ccc2c(c1NC(=O)Cc1ccc(C(F)(F)F)cc1)CCN(C(=O)[C@H]1CCCN1)C2` [Compound 3060, N-[6-Methyl-2-((R)-pyrrolidine-2-carbonyl)-1,2,3,4-tetrahydro-isoquinolin-5-yl]-2-(4-trifluoromethyl-phenyl)-acetamide] the figure was 64.4 nM. Still for that read-out and setting: with `O=C(Cc1ccc(C(F)(F)F)c(F)c1)Nc1cccc2c1CCN(C(=O)[C@H]1CCCN1)C2` [Compound 3051] the figure was 73 nM. The molecule `CC(c1ccc(F)cc1)N1CCc2c(cccc2NC(=O)Cc2ccc(C(F)(F)F)c(F)c2)C1` (stereo not shown) [Compound 3059, N-{2-[1-(4-Fluoro-phenyl)-ethyl]-1,2,3,4-tetrahydro-isoquinolin-5-yl}-2-(3-fluoro-4-trifluoromethyl-phenyl)-acetamide] came in with a half-maximal inhibitory concentration (IC50) of 256 nM.

Molecule `CC(C)(C)OC(=O)NC(Cc1ccccc1)C(=O)N1CCc2c(cccc2NC(=O)Cc2ccc(C(F)(F)F)c(F)c2)C1` (stereo not shown) [Compound 3045] came in with a half-inhibitory concentration (IC50) of 385 nM. In the case of `Cc1ccc2c(c1NC(=O)Cc1ccc(C(F)(F)F)c(F)c1)CCN(C(=O)C(C)C)C2` [Compound 3215], inhibition was half-maximal at 48.6 nM (IC50). For `CCCCS(=O)(=O)N1CCc2c(ccc(Cl)c2NC(=O)Cc2cccc(C(F)(F)F)c2F)C1` [Compound 3327], half-maximal inhibition (IC50) required 47.2 nM. The IC50 values of the last two molecules are within 1.5-fold of each other. `CCCC(O)CN1CCc2c(cccc2NC(=O)Cc2ccc(C(F)(F)F)c(F)c2)C1` (stereo not shown) [Compound 3063] showed an IC50 of 673 nM. Against the preceding molecule, the IC50 is about 14-fold higher.

`Cc1ccc2c(c1NC(=O)Cc1ccc(C(F)(F)F)c(F)c1)CCN(C(=O)CCC1CCCCC1)C2` [Compound 3251] registered a concentration for half-maximal inhibition (IC50) of 61.9 nM. Still for that read-out and setting: with `O=C(Cc1ccc(C(F)(F)F)c(F)c1)Nc1cccc2c1CCN(CC(O)Cc1ccccc1)C2` (stereo not shown) [Compound 3257] the figure was 425 nM; with `COc1ccc2c(c1NC(=O)Cc1ccc(C(F)(F)F)c(F)c1)CCN(C(=O)C(C)(C)C)C2` [Compound 3474, N-[2-(2,2-Dimethyl-propionyl)-6-methoxy-1,2,3,4-tetrahydro-isoquinolin-5-yl]-2-(3-fluoro-4-trifluoromethyl-phenyl)-acetamide], 201 nM.
